Experimental findings from patent US7902179B2, “Heterocyclic compounds” (Ajinomoto Co., Inc., priority 2001, dated 2011) are described below.

Structures are written as SMILES.

In this assay the test system is TNF-α production from mouse peritoneal macrophage. Description: Inhibition of TNF-α production from mouse peritoneal macrophage (LPS stimulation, ELISA). Format: cell-based. The settings on record: ICR mouse peritoneal cells, GM-CSF and IFN-γ 10 ng/ml, LPS 5 ng/ml, cultured 16 hrs, 50% suppression of TNF-α amount, read-out: IC50 (μM) Mo-TNF. The method, then:
Test for TNF-α Production or Inhibition of TNF-α Production from Mouse Peritoneal Macrophage Peritoneal cells were recovered from the peritoneal cavity of ICR mice (male, 5-7 weeks of age, Charles River) and sown in a 96-well half plate (Costar 3696) at a density of 1×10^5 cells per well. As the medium, RPMI-1640 containing 10% fetal calf serum was used and, using this medium, each reagent was prepared. Mouse GM-CSF (Peprotech) and mouse IFN-γ (Peprotech) were respectively added at a final concentration of 10 ng/ml, lipopolysaccharide (E. coli 0111: B4 LPS, DIFCO, lot 99078) was added at a final concentration of 5 ng/ml, and the compound of the present invention was added at 8 steps of dilution series by 3-fold dilution from the final concentration (300 μM), and cultured for 16 hrs. The concentration of TNF-α secreted into the culture supernatant was determined using a mouse TNF-α ELISA quantitative determination kit (Pharmingen, #2673KI) and the absorbance at 450 nm was measured using a V-max kinetic microplate reader (Molecular Devices). The concentration of the compound necessary for 50% suppression of TNF-α amount produced by lipopolysaccharide stimulation was taken as IC50 (μM).
A general note: In an ELISA, binding on a coated surface is turned into a signal by an enzyme label.
Usually IC50 stands for the concentration at which inhibition is half-maximal. In the case of `Cc1cccc(-n2nc3c(c2N)C(=O)NC(=O)C3)c1` [Example 14], the 50% inhibitory concentration (IC50) is 27.3 µM. Take `Cc1ccc(-n2nc3c(c2N)C(=O)NC(=O)C3)cc1` [Example 5]: the half-inhibitory concentration (IC50) amounted to 23.9 µM. With `CC(=O)Nc1ccc(/C=C2/C(=O)NC(=O)c3c2nn(-c2ccccc2)c3N)cc1` [Example 53] the figure was 7.9 µM. With `Nc1ccc(/C=C2/C(=O)NC(=O)c3c2nn(-c2ccccc2)c3N)cc1` [Example 55] the figure was 6.1 µM; with `O=C1Cc2nn(-c3ccccc3)c(Sc3ccccc3)c2C(=O)N1` [Example 33], 79.1 µM; with `CCC/C=C1/C(=O)NC(=O)c2c1nn(-c1ccccc1)c2N` [Example 77], 14.7 µM. The value for `CC1(C)CCC(n2nc3c(c2N)C(=O)NC(=O)C3)CC1` [Example 163] was 2.6 µM; that for `O=C1Cc2nn(-c3ccccc3)c(N3CCCC3)c2C(=O)N1` [Example 186] was 14.7 µM. Regarding `CC(C)c1ccc(/C=C2/C(=O)NC(=O)c3c2nn(-c2ccccc2)c3N)cc1` [Example 52], the IC50 amounted to 8.6 µM. The value for `CCC(CC)n1nc2c(c1N)C(=O)NC(=O)C2` [Example 158] was 5.8 µM. With `Nc1c2c(nn1-c1ccccc1)C(=C1CCOCC1)C(=O)NC2=O` [Example 92] the figure was 31.9 µM; with `Cn1ccnc1/C=C1/C(=O)NC(=O)c2c1nn(-c1ccccc1)c2N` [Example 64], 3.5 µM; with `Nc1c2c(nn1-c1cccc(Cl)c1)CC(=O)NC2=O` [Example 11], 15.2 µM. The value for `COc1cccc(/C=C2/C(=O)NC(=O)c3c2nn(-c2ccccc2)c3N)c1` [Example 72] was 80.5 µM; that for `O=C1Cc2nn(-c3ccccc3)c(-c3ccncc3)c2C(=O)N1` [Example 190] was 77.3 µM. On to `Cn1nc2c(c1NCc1cccc(O)c1)C(=O)NC(=O)C2` [Example 112], for which the IC50 was determined as 82.2 µM. Regarding `CCOC(=O)C(C)C1C(=O)NC(=O)c2c1nn(-c1ccccc1)c2N` (centres unmarked) [Example 149], the IC50 was 99.7 µM.

With `CCCC(CCC)n1nc2c(c1N)C(=O)NC(=O)C2` [Example 162], the half-maximal inhibitory concentration (IC50) was 13 µM. With `O=C1Cc2nn(-c3ccccc3)c(I)c2C(=O)N1` [Example 27] the figure was 28.3 µM. The value for `CCOC(=O)Nc1cccc(-n2nc3c(c2N)C(=O)NC(=O)C3)c1` [Example 129] was 8.4 µM; that for `CC(C)=C1C(=O)NC(=O)c2c1nn(-c1ccccc1)c2N` [Example 135] was 8.3 µM. The value for `Nc1c2c(nn1-c1ccccn1)CC(=O)NC2=O` [Example 13] was 5 µM; that for `Nc1c2c(nn1-c1ccc(Cl)cc1)CC(=O)NC2=O` [Example 12] was 11.8 µM. Consider `Nc1c2c(nn1-c1ccccc1)/C(=C\c1ccco1)C(=O)NC2=O` [Example 83], for which the IC50 was 93.2 µM. With `CC/C(C)=C1/C(=O)NC(=O)c2c1nn(-c1ccccc1)c2N` [Example 88] the figure was 9.9 µM; with `C/C=C1/C(=O)NC(=O)c2c1nn(-c1ccccc1)c2N` [Example 86], 9.7 µM; with `CCOC(=O)/C(C)=C1\C(=O)NC(=O)c2c1nn(-c1ccccc1)c2N` [Example 136], 4.3 µM. For `Nc1c2c(nn1-c1ccccc1)C1(CC1)C(=O)NC2=O` [Example 98], the half-maximal inhibitory concentration (IC50) was 18.4 µM. With `Nc1c2c(nn1Cc1cccc3ccccc13)CC(=O)NC2=O` [Example 172] the figure was 83.1 µM; with `Nc1c2c(nn1Cc1ccccc1I)CC(=O)NC2=O` [Example 180], 8.7 µM; with `CO/N=C1/C(=O)NC(=O)c2c1nn(-c1ccccc1)c2N` [Example 143], 26.2 µM.

Consider `Nc1c2c(nn1Cc1cccnc1)CC(=O)NC2=O` [Example 176], for which the half-maximal inhibitory concentration (IC50) is 3.5 µM. With `COc1cccc(-n2nc3c(c2N)C(=O)NC(=O)C3)c1` [Example 16] the figure was 20.1 µM. `COc1cccc(OC)c1/C=C1/C(=O)NC(=O)c2c1nn(-c1ccccc1)c2N` [Example 73]: the IC50 turned out to be 5.6 µM. The value for `O=C1Cc2nn(-c3ccccc3)cc2C(=O)N1` [Example 25] was 28 µM; that for `Nc1c2c(nn1Cc1ccccc1O)CC(=O)NC2=O` [Example 170] was 13.2 µM; that for `Nc1c2c(nn1-c1ccccc1)CC(=O)NC2=O` [Example 21] was 3.5 µM. The value for `Nc1c2c(nn1-c1ccccc1)/C(=C\c1ccc(C(=O)O)cc1)C(=O)NC2=O` [Example 60] was 3.7 µM; that for `COC(=O)CCn1nc2c(c1N)C(=O)NC(=O)C2` [Example 36] was 80.5 µM. In the case of `Nc1c2c(nn1-c1ccccc1O)CC(=O)NC2=O` [Example 153], the IC50 was 9 µM. With `CCC(CC)Cn1nc2c(c1N)C(=O)NC(=O)C2` [Example 167] the figure was 26.8 µM; with `Nc1c2c(nn1-c1cccc(F)c1)CC(=O)NC2=O` [Example 9], 18 µM. In the case of `CSCC/C=C1/C(=O)NC(=O)c2c1nn(-c1ccccc1)c2N` [Example 78], the IC50 turned out to be 10.6 µM. The value for `Nc1c2c(nn1-c1ccccc1)/C(=C\c1cccs1)C(=O)NC2=O` [Example 82] was 78.5 µM; that for `CCCCCCn1nc2c(c1N)C(=O)NC(=O)C2` [Example 164] was 2.1 µM. Consider `Nc1c2c(nn1-c1ccccc1)/C(=C\c1cccc(O)c1)C(=O)NC2=O` [Example 57], for which the IC50 was determined as 7.8 µM. As for `Nc1c2c(nn1-c1ccccc1)/C(=C\C1=COc3ccc(O)cc3C1)C(=O)NC2=O` [Example 66], the IC50 came out at 3.5 µM. The value for `Nc1c2c(nn1-c1c(Cl)cccc1Cl)CC(=O)NC2=O` [Example 19] was 32.8 µM; that for `O=C1Cc2nn(-c3ccccc3)c(Br)c2C(=O)N1` [Example 26] was 15.1 µM; that for `Nc1c2c(nn1C1CCCC1)CC(=O)NC2=O` [Example 161] was 10.9 µM.

On to `Nc1c2c(nn1C1CCOCC1)CC(=O)NC2=O` [Example 159], for which the IC50 is 26.9 µM. The value for `Nc1c2c(nn1-c1ccc(F)cc1)CC(=O)NC2=O` [Example 124] was 9.4 µM; that for `COc1ccccc1/C=C1/C(=O)NC(=O)c2c1nn(-c1ccccc1)c2N` [Example 71] was 4.5 µM. The value for `Nc1c2c(nn1-c1ccccc1)/C(=C\c1ccc(O)cc1)C(=O)NC2=O` [Example 46] was 23.7 µM.

On to `Nc1c2c(nn1-c1ccc([N+](=O)[O-])cc1)CC(=O)NC2=O` [Example 10], for which the IC50 was 22.9 µM. With `Nc1c2c(nn1CC1CCCCC1)CC(=O)NC2=O` [Example 160] the figure was 60.3 µM; with `Nc1c2c(nn1-c1c(F)c(F)c(F)c(F)c1F)CC(=O)NC2=O` [Example 125], 10.8 µM. With `Cc1ccccc1/C=C1/C(=O)NC(=O)c2c1nn(-c1ccccc1)c2N` [Example 49] the figure was 32.7 µM; with `Nc1c2c(nn1-c1ccccc1)/C(=C\c1c(F)c(F)c(F)c(F)c1F)C(=O)NC2=O` [Example 133], 0.3 µM. With `Nc1c2c(nn1-c1ccccc1)/C(=C\c1ccc(O)c(O)c1)C(=O)NC2=O` [Example 56] the figure was 3.3 µM; with `COc1cc(OC)c(/C=C2/C(=O)NC(=O)c3c2nn(-c2ccccc2)c3N)c(OC)c1` [Example 74], 4.4 µM. In the case of `O=C1Cc2nn(-c3ccccc3)c(NC3CCCCC3)c2C(=O)N1` [Example 187], the IC50 turned out to be 16.6 µM.
